Assay results as given in paper PMC10568461, “A pilot study of cerebral metabolism and serotonin 5-HT2A receptor occupancy in rats treated with the psychedelic tryptamine DMT in conjunction with the MAO inhibitor harmine” (Frontiers in Pharmacology, 2023).
“And” between values parts separate entries of the source, which are not always exact repeats. Equal entries are not always repeated.

Assays:
brain glucose metabolism = assay: [^18F]FDG-PET of cerebral glucose metabolism (experiment 1); format: in vivo, rat; settings: for [^18F]FDG-PET SUV normalized to whole-brain uptake (SUVglob): 1 mg/kg s.c.; for [^18F]FDG-PET SUV normalized to whole-brain uptake (SUVglob) / [^18F]FDG-PET glucose normalized SUV (SUVgluc): mean (SD)
Procedure: The dynamic PET recordings were histogrammed into six frames of 5 minutes each, and reconstructed with attenuation, decay, and scatter correction using the OSEM3D/SP-MAP algorithm (2 x OSEM iterations and 18 x MAP iterations) with a matrix size of 128 × 128 pixels, resulting in a final target resolution of 0.8 mm/pixel. Pre-processing of PET scans was performed using PMOD v4.2 (PMOD Technologies LLC, Zurich, Switzerland). The [^18F]FDG images were averaged across the six frames and then converted into standardized uptake values (SUV), whereupon the image was cropped to the head of the animal and automatically co-registered to a standard [^18F]FDG-PET template. We used Schiffer’s atlas ([Schiffer et al., 2006]) for parcellation of bilateral brain regions within the cortico-striato-thalamo-cortical (CSTC) circuit, i.e. bilateral nucleus accumbens (NAc), medial prefrontal cortex (mPFC), orbitofrontal cortex (OFC), hippocampus, striatum, thalamus, visual cortex, cerebellum as a comparator region, and whole brain. We selected these regions from the CSTC circuit based on a conceptual model holding that the thalamus acts as a filter/gatekeeper of sensory information, broadcasting to cortical regions that subserve conscious experience ([Wang et al., 2006]; [McAlonan et al., 2008]). Perturbation of this CSTC circuit is implicated in the action of psychedelic compounds ([Geyer and Vollenweider, 2008]; [Preller et al., 2019]). We scaled individual regional SUV results to the mean blood glucose levels measured during the recording session (SUVgluc) and to the global [^18F]FDG uptake (SUVglob).

[1] = parameters: method as in ref Guan et al., 2001; Li et al., 2017; Wang et al., 2019; Brito-da-Costa et al., 2020; settings: rats, 0.5 to 3.3 mg/kg i.v. and 20–40 mg/kg p.o.; ref Guan et al., 2001; Li et al., 2017; Wang et al., 2019; Brito-da-Costa et al., 2020; cited from earlier work
[2] = Brain concentrations of harmine, DMT and metabolites by UHPLC-MS after s.c. harmine and/or DMT; settings: rat, subcutaneous
Procedure: Groups of (n = 6) rats received either saline, harmine (1 mg/kg), DMT (1 mg/kg), or harmine + DMT (1 mg/kg each) as subcutaneous injections, as indicated in Figure 1.
After 45 min, rats were sacrificed by decapitation, and the brains dissected into cerebellum and frontal cortex samples for radioactivity measurement and chemical analysis, thus 65 min after harmine + DMT.

rats = assay: Behavioural observations in treated rats; format: in vivo, rat; settings: not systematically assessed
MAO-A [3] = biological target: T1, MAO-A (Rattus norvegicus, UniProt P21396); assay: Apparent affinity at MAO binding sites in living brain; format: in vivo; settings: extrapolated from the 150-fold in vitro/in vivo difference of [^18F]fluoroethyl-harmol; read-out: Predicted apparent affinity for MAO-A in living brain
T1 sequence (P21396 1-526): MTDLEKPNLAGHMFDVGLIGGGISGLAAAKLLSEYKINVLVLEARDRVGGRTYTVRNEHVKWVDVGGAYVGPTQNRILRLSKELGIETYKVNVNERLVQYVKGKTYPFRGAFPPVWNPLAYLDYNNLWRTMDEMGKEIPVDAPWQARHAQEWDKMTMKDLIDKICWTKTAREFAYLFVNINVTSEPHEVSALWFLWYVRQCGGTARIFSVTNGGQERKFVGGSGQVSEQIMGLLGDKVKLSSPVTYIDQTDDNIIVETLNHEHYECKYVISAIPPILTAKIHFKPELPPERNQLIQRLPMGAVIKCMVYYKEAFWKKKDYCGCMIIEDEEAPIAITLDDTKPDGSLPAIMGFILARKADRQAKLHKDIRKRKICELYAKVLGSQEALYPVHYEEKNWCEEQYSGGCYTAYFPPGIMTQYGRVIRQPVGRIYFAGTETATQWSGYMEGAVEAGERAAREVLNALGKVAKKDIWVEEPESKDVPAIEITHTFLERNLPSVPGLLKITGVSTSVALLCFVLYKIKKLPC

MAO-A [4] = biological target: T1, MAO-A; assay: MAO-A inhibition in living brain inferred from cerebral 3-IAA; format: in vivo; settings: Experiment 1, harmine 1 mg/kg with DMT; suggested by lower cerebral 3-IAA

COc1ccc2c(c1)[nH]c1c(C)nccc12 [harmine]
Qualitative effect on brain [^18F]FDG uptake (SUVglob maps) (brain glucose metabolism; 1 mg/kg, separately or in combination): no conspicuous effects
Thalamus SUVglob versus vehicle group (Dunn's post hoc test) (brain glucose metabolism; 1 mg/kg, Z = −2.66, p = 0.047): significantly different from the vehicle group
[^18F]FDG-PET SUV normalized to whole-brain uptake (SUVglob) (brain glucose metabolism; NAc): 6.23 (0.18) SUV
[^18F]FDG-PET glucose normalized SUV (SUVgluc) (brain glucose metabolism; NAc, 1 mg/kg): 6.4 (1.05) SUV
[^18F]FDG-PET SUV normalized to whole-brain uptake (SUVglob) (brain glucose metabolism; OFC): 6.5 (0.44) SUV
[^18F]FDG-PET glucose normalized SUV (SUVgluc) (brain glucose metabolism; OFC, 1 mg/kg): 6.71 (1.33) SUV
[^18F]FDG-PET SUV normalized to whole-brain uptake (SUVglob) (brain glucose metabolism; cerebellum): 4.52 (0.15) SUV
[^18F]FDG-PET glucose normalized SUV (SUVgluc) (brain glucose metabolism; cerebellum, 1 mg/kg): 4.62 (0.67) SUV
[^18F]FDG-PET SUV normalized to whole-brain uptake (SUVglob) (brain glucose metabolism; hippocampus): 5.32 (0.23) SUV
[^18F]FDG-PET glucose normalized SUV (SUVgluc) (brain glucose metabolism; hippocampus, 1 mg/kg): 5.44 (0.77) SUV
[^18F]FDG-PET SUV normalized to whole-brain uptake (SUVglob) (brain glucose metabolism; mPFC): 7.09 (0.32) SUV
[^18F]FDG-PET glucose normalized SUV (SUVgluc) (brain glucose metabolism; mPFC, 1 mg/kg): 7.28 (1.18) SUV
[^18F]FDG-PET SUV normalized to whole-brain uptake (SUVglob) (brain glucose metabolism; striatum): 6.99 (0.12) SUV
[^18F]FDG-PET glucose normalized SUV (SUVgluc) (brain glucose metabolism; striatum, 1 mg/kg): 7.19 (1.21) SUV
[^18F]FDG-PET SUV normalized to whole-brain uptake (SUVglob) (brain glucose metabolism; thalamus): 6.54 (0.13) SUV
[^18F]FDG-PET glucose normalized SUV (SUVgluc) (brain glucose metabolism; thalamus, 1 mg/kg): 6.73 (1.15) SUV
[^18F]FDG-PET SUV normalized to whole-brain uptake (SUVglob) (brain glucose metabolism; visual cortex): 6.1 (0.24) SUV
[^18F]FDG-PET glucose normalized SUV (SUVgluc) (brain glucose metabolism; visual cortex, 1 mg/kg): 6.29 (1.15) SUV
[^18F]FDG-PET glucose normalized SUV (SUVgluc) (brain glucose metabolism; whole brain, 1 mg/kg): 5.69 (0.93) SUV
Plasma half-life [1]: 3.5 h
concentration at 100 min ([2]; brain, 1 mg/kg, Brain harmine concentration, at 100 min after treatment with 1 mg/kg): ~1000 nM
concentration at 95 min ([2]; brain, 1 mg/kg, Mean concentration in brain tissue, Experiment 1, after harmine alone (1 mg/kg)): 116 ng/g and 550 nM
concentration at 70 min ([2]; brain, 3 mg/kg, Brain harmine concentration, at 70 min after the higher dose (3 mg/kg)): ~2000 nM
concentration at 65 min ([2]; brain, Mean brain concentration, Experiment 2, harmine + DMT (3 mg/kg each)): 424 ng/g and 2 µM
concentration at 95 min ([2]; brain, Mean concentration in brain tissue, Experiment 1, after harmine + DMT (1 mg/kg each)): 257 ng/g and 1.21 µM
concentration at 95 min ([2]; cerebellum, 1 mg/kg, Brain concentration, Experiment 1, cerebellum, group DMT (1 mg/kg s.c.), 95 min, mean (SD)): 13.6 ng/g
concentration at 95 min ([2]; cerebellum, Brain concentration, Experiment 1, cerebellum, group Har (harmine 1 mg/kg s.c.), 95 min after drug, mean (SD)): 104 ng/g
concentration at 95 min ([2]; cerebellum, Brain concentration, Experiment 1, cerebellum, group Har + DMT (1 mg/kg each s.c.), 95 min, mean (SD)): 189 ng/g
concentration at 65 min ([2]; cerebellum, Brain concentration, Experiment 2, cerebellum, group Har + DMT (3 mg/kg each s.c.), 65 min, mean (SD)): 412 ng/g
concentration at 95 min ([2]; frontal cortex, 1 mg/kg, Brain concentration, Experiment 1, frontal cortex, group DMT (1 mg/kg s.c.), 95 min, mean (SD)): 20.1 ng/g
concentration at 95 min ([2]; frontal cortex, Brain concentration, Experiment 1, frontal cortex, group Har (harmine 1 mg/kg s.c.), 95 min, mean (SD)): 128 ng/g
concentration at 95 min ([2]; frontal cortex, Brain concentration, Experiment 1, frontal cortex, group Har + DMT (1 mg/kg each s.c.), 95 min, mean (SD)): 326 ng/g
concentration at 65 min ([2]; frontal cortex, Brain concentration, Experiment 2, frontal cortex, group Har + DMT (3 mg/kg each s.c.), 65 min, mean (SD)): 436 ng/g
Behaviour and anesthesia requirement of treated rats (rats): calmer and needed less isoflurane to sustain anesthesia
Kd (MAO-A [3]): ~300 nM
Inhibition of MAO-A in living brain (MAO-A [4]): 50%
